Experimental data: the supplement of paper PMC10307832

Experiments:
Assay in all cases: relative viability (nuclei count vs DMSO), 5 days (fraction); higher = more cells survive
[1] = compound: CO[C@H]1C[C@@H]2CC[C@@H](C)[C@@](O)(O2)C(=O)C(=O)N2CCCC[C@H]2C(=O)O[C@H]([C@H](C)C[C@@H]2CC[C@@H](OCCO)[C@H](OC)C2)CC(=O)[C@H](C)/C=C(\C)[C@@H](O)[C@@H](OC)C(=O)[C@H](C)C[C@H](C)/C=C/C=C/C=C/1C [Everolimus] + CCNC(=O)c1noc(-c2cc(C(C)C)c(O)cc2O)c1-c1ccc(CN2CCOCC2)cc1 [Luminespib] (partner 0.01 µM)
Procedure, shortened: (§1)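 Relative viability divides the nuclei count in treated wells by that in vehicle wells. Lung cancer cell lines were seeded in 1536-well plates, dosed by pin tool the next day, and fixed and stained after 5 days in one step with final 0.05% Triton X-100, 1% formaldehyde and 1 ug/ml Hoechst. Dosing was a single drug or a fixed anchor-drug dose plus five library-drug doses (not always all listed) in √10 steps, and values are medians of duplicate plates imaged at 4×.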

[2] = compound: CO[C@H]1C[C@@H]2CC[C@@H](C)[C@@](O)(O2)C(=O)C(=O)N2CCCC[C@H]2C(=O)O[C@H]([C@H](C)C[C@@H]2CC[C@@H](OCCO)[C@H](OC)C2)CC(=O)[C@H](C)/C=C(\C)[C@@H](O)[C@@H](OC)C(=O)[C@H](C)C[C@H](C)/C=C/C=C/C=C/1C [Everolimus] + CS(=O)(=O)CCNCc1ccc(-c2ccc3ncnc(Nc4ccc(OCc5cccc(F)c5)c(Cl)c4)c3c2)o1 [Lapatinib] (partner 2 µM)
Procedure, shortened: as §1

[3] = compound: CO[C@H]1C[C@@H]2CC[C@@H](C)[C@@](O)(O2)C(=O)C(=O)N2CCCC[C@H]2C(=O)O[C@H]([C@H](C)C[C@@H]2CC[C@@H](OCCO)[C@H](OC)C2)CC(=O)[C@H](C)/C=C(\C)[C@@H](O)[C@@H](OC)C(=O)[C@H](C)C[C@H](C)/C=C/C=C/C=C/1C [Everolimus] + Nc1ncn([C@H]2C[C@H](O)[C@@H](CO)O2)c(=O)n1 [Decitabine] (partner 2 µM)
Procedure, shortened: as §1

[4] = compound: CO[C@H]1C[C@@H]2CC[C@@H](C)[C@@](O)(O2)C(=O)C(=O)N2CCCC[C@H]2C(=O)O[C@H]([C@H](C)C[C@@H]2CC[C@@H](OCCO)[C@H](OC)C2)CC(=O)[C@H](C)/C=C(\C)[C@@H](O)[C@@H](OC)C(=O)[C@H](C)C[C@H](C)/C=C/C=C/C=C/1C [Everolimus] + O=C(c1cc(Cc2n[nH]c(=O)c3ccccc23)ccc1F)N1CCN(C(=O)C2CC2)CC1 [Olaparib] (partner 8 µM)
Procedure, shortened: as §1

Row | Cell Line | relative viability ([1]; first compound 0.01 µM) | relative viability ([1]; first compound 0.03162 µM) | relative viability ([1]; first compound 0.1 µM) | relative viability ([1]; first compound 0.3162 µM) | relative viability ([1]; first compound 1 µM) | relative viability ([2]; first compound 0.01 µM) | relative viability ([2]; first compound 0.03162 µM) | relative viability ([2]; first compound 0.1 µM) | relative viability ([2]; first compound 0.3162 µM) | relative viability ([2]; first compound 1 µM) | relative viability ([3]; first compound 0.01 µM) | relative viability ([3]; first compound 0.03162 µM) | relative viability ([3]; first compound 0.1 µM) | relative viability ([3]; first compound 0.3162 µM) | relative viability ([3]; first compound 1 µM) | relative viability ([4]; first compound 0.01 µM) | relative viability ([4]; first compound 0.03162 µM) | relative viability ([4]; first compound 0.1 µM) | relative viability ([4]; first compound 0.3162 µM) | relative viability ([4]; first compound 1 µM)
1 | 201T | 0.85 | 0.816 | 0.838 | 0.823 | 0.874 | 0.911 | 1 | 0.852 | 0.882 | 0.938 | 0.758 | 0.757 | 0.635 | 0.705 | 0.716 | 0.716 | 0.802 | 0.724 | 0.786 | 0.783
2 | NCI-H838 | 0.206 | 0.153 | 0.198 | 0.172 | 0.266 | 0.517 | 0.535 | 0.48 | 0.439 | 0.625 | 0.435 | 0.444 | 0.356 | 0.384 | 0.392 | 0.493 | 0.484 | 0.494 | 0.479 | 0.403
3 | SW 1573 | 0.172 | 0.181 | 0.359 | 0.215 | 0.216 | 0.649 | 0.705 | 0.627 | 0.686 | 0.572 | 0.268 | 0.331 | 0.298 | 0.306 | 0.338 | 0.264 | 0.384 | 0.314 | 0.268 | 0.3
4 | PC-14 | 0.175 | 0.171 | 0.145 | 0.171 | 0.191 | 0.231 | 0.226 | 0.22 | 0.192 | 0.234 | 0.276 | 0.26 | 0.235 | 0.296 | 0.293 | 0.46 | 0.434 | 0.298 | 0.343 | 0.411
5 | LK-2 | 0.179 | – | 0.171 | 0.177 | 0.189 | 0.664 | 0.533 | 0.787 | 0.471 | 0.449 | 0.268 | 0.156 | 0.19 | 0.194 | 0.193 | 0.594 | 0.603 | 0.413 | 0.403 | 0.351
6 | COR-L23 | 0.417 | 0.377 | 0.461 | 0.431 | 0.268 | 0.744 | 0.829 | 0.804 | 1.01 | 0.918 | 0.312 | 0.308 | 0.325 | 0.369 | 0.323 | 0.321 | 0.346 | 0.334 | 0.282 | 0.352
7 | NCI-H1944 | 0.436 | 0.447 | 0.374 | 0.429 | 0.345 | 0.633 | 0.669 | 0.617 | 0.604 | 0.541 | 0.409 | 0.409 | 0.386 | 0.396 | 0.355 | 0.389 | 0.329 | 0.325 | 0.35 | 0.351
8 | NCI-H2405 | 0.657 | 0.548 | 0.523 | 0.52 | 0.484 | 0.84 | 0.903 | 0.712 | 0.872 | 0.796 | 0.521 | 0.531 | 0.539 | 0.532 | 0.52 | 0.757 | 0.745 | 0.681 | 0.713 | 0.686
9 | SK-LU-1 | 0.183 | 0.147 | 0.174 | 0.164 | 0.168 | 0.638 | 0.624 | 0.576 | 0.49 | 0.61 | 0.411 | 0.474 | 0.474 | 0.516 | 0.524 | 0.423 | 0.378 | 0.301 | 0.389 | 0.362
10 | EMC-BAC-2 | 0.789 | 0.714 | 0.689 | 0.735 | 0.613 | 0.675 | 0.563 | 0.49 | 0.571 | 0.517 | 0.743 | 0.81 | 0.659 | – | 0.755 | 0.455 | 0.43 | 0.385 | 0.383 | 0.347
11 | NCI-H1650 | 0.167 | 0.207 | 0.184 | 0.208 | 0.19 | 0.615 | 0.707 | 0.645 | 0.742 | 0.489 | 0.472 | 0.389 | 0.556 | 0.406 | 0.573 | 0.893 | 0.934 | 0.791 | 0.834 | 0.849
12 | NCI-H596 | 0.636 | 0.5 | 0.379 | 0.533 | 0.519 | 0.715 | 0.677 | 0.545 | 0.676 | 0.677 | 0.761 | 0.595 | 0.739 | 0.69 | 0.605 | 0.642 | 0.475 | 0.618 | 0.515 | 0.506
13 | LCLC-97TM1 | 0.76 | 0.743 | 0.549 | 0.581 | 0.769 | 0.611 | 0.869 | 0.759 | 0.817 | 0.852 | 0.197 | 0.205 | 0.184 | 0.208 | 0.218 | 0.356 | 0.317 | 0.291 | 0.269 | 0.434
14 | H3255 | 0.594 | 0.584 | 0.479 | 0.504 | 0.498 | 0.249 | 0.238 | 0.266 | 0.212 | 0.225 | 0.409 | 0.433 | 0.322 | 0.371 | 0.315 | 0.489 | 0.513 | 0.444 | 0.454 | 0.355
15 | LXF-289 | 0.59 | 0.512 | 0.582 | 0.641 | 0.66 | 0.908 | 0.951 | 0.889 | 0.889 | 0.899 | 0.358 | 0.359 | 0.306 | 0.38 | 0.411 | 1.03 | 1.04 | 0.885 | 1.03 | 1
